PubChem BioAssay (NCI)
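Where inhibition never reached the appropriate level, the endpoint shown equals the highest concentration tested. Otherwise, values were interpolated linearly from a five-concentration, 48-hour dose response in 96-well plates. Here, GI50 denotes the concentration required for 50% inhibition of growth. TGI is the concentration that stops growth completely.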

Legend:
Assay in all cases: NCI tumour cell line growth inhibition, 48 h
786-0 renal = system: 786-0 renal
CCRF-CEM leukemia = system: CCRF-CEM leukemia
DU-145 prostate = system: DU-145 prostate
HCT-116 colon = system: HCT-116 colon
HOP-62 NSCLC = system: HOP-62 NSCLC
IGROV1 ovarian = system: IGROV1 ovarian
NCI-H460 lung = system: NCI-H460 lung
OVCAR-3 ovarian = system: OVCAR-3 ovarian
HCC-2998 colon = system: HCC-2998 colon
MCF7 breast = system: MCF7 breast

Work on `O=C(O)CC(S)C(=O)O.[Li+].[Sb]` (centres undefined) yielded a GI50 (786-0 renal) of over 100 µM, a TGI (786-0 renal) of over 100 µM and a GI50 (CCRF-CEM leukemia) of 57 µM. It also gave a TGI (CCRF-CEM leukemia) of over 100 µM, a GI50 (DU-145 prostate) of over 100 µM and a TGI (DU-145 prostate) of over 100 µM. The GI50 (HCT-116 colon) was over 100 µM, the TGI (HCT-116 colon) was over 100 µM and the GI50 (HOP-62 NSCLC) was 44.2 µM. For the same compound, the TGI (HOP-62 NSCLC) was over 100 µM, the GI50 (IGROV1 ovarian) was over 100 µM and the TGI (IGROV1 ovarian) was over 100 µM. It also gave a GI50 (NCI-H460 lung) of 89.5 µM, a TGI (NCI-H460 lung) of over 100 µM and a GI50 (OVCAR-3 ovarian) of over 100 µM. It also gave a TGI (OVCAR-3 ovarian) of over 100 µM.

`COC(=O)/C=C(C)/C=C/c1c(C)c(C(C)=O)c(C)n1C` gave a TGI (786-0 renal) of over 100 µM, a TGI (CCRF-CEM leukemia) of over 100 µM and a TGI (HCC-2998 colon) of over 100 µM. For the same compound, the TGI (HCT-116 colon) was over 100 µM, the TGI (HOP-62 NSCLC) was over 100 µM and the TGI (IGROV1 ovarian) was over 100 µM. It also gave a TGI (OVCAR-3 ovarian) of over 100 µM.

For `COc1ccc2[nH]cc(Cc3c[nH]c4ccc(OC)cc34)c2c1`, the GI50 (786-0 renal) was 38.9 µM, the TGI (786-0 renal) was over 100 µM and the GI50 (DU-145 prostate) was 15.2 µM. For the same compound, the TGI (DU-145 prostate) was 34 µM, the GI50 (HCT-116 colon) was 15.8 µM and the TGI (HCT-116 colon) was 29.2 µM. It also gave a GI50 (IGROV1 ovarian) of 15.4 µM, a TGI (IGROV1 ovarian) of 33.1 µM and a GI50 (MCF7 breast) of 28.7 µM. It also gave a TGI (MCF7 breast) of over 100 µM, a GI50 (NCI-H460 lung) of 22.7 µM and a TGI (NCI-H460 lung) of 63.8 µM. The GI50 (OVCAR-3 ovarian) was 13.3 µM and the TGI (OVCAR-3 ovarian) was 31.3 µM.

`CN(CCCCCCCCNc1ccnc2ccccc12)Cc1ccc(-c2ccc(-c3ccc(C#N)cc3)s2)cc1` gave a GI50 (786-0 renal) of 1.4 µM, a TGI (786-0 renal) of 3.25 µM and a GI50 (DU-145 prostate) of 1.04 µM. It also gave a TGI (DU-145 prostate) of 2.38 µM, a GI50 (HCC-2998 colon) of 0.275 µM and a TGI (HCC-2998 colon) of 1.04 µM. It also gave a GI50 (HCT-116 colon) of 0.184 µM, a TGI (HCT-116 colon) of 0.537 µM and a GI50 (HOP-62 NSCLC) of 0.685 µM. It also gave a TGI (HOP-62 NSCLC) of 2.5 µM, a GI50 (IGROV1 ovarian) of 1.4 µM and a TGI (IGROV1 ovarian) of 3.02 µM. For the same compound, the GI50 (MCF7 breast) was 0.183 µM, the TGI (MCF7 breast) was 0.533 µM and the GI50 (NCI-H460 lung) was 0.367 µM. For the same compound, the TGI (NCI-H460 lung) was 1.25 µM, the GI50 (OVCAR-3 ovarian) was 0.647 µM and the TGI (OVCAR-3 ovarian) was 2.07 µM.

With `COC(=O)c1cc2c([nH]c3ccccc32)c(-c2nc3ccccc3cc2CO)n1` the GI50 (786-0 renal) was 6.2 µM, the TGI (786-0 renal) was over 100 µM and the GI50 (CCRF-CEM leukemia) was 25.5 µM. It also gave a TGI (CCRF-CEM leukemia) of over 100 µM, a GI50 (DU-145 prostate) of over 100 µM and a TGI (DU-145 prostate) of over 100 µM. The GI50 (HCC-2998 colon) was over 100 µM, the TGI (HCC-2998 colon) was over 100 µM and the GI50 (HCT-116 colon) was 7.93 µM. The TGI (HCT-116 colon) was over 100 µM, the GI50 (IGROV1 ovarian) was over 100 µM and the TGI (IGROV1 ovarian) was over 100 µM. It also gave a GI50 (MCF7 breast) of over 100 µM, a TGI (MCF7 breast) of over 100 µM and a GI50 (NCI-H460 lung) of over 100 µM. The TGI (NCI-H460 lung) was over 100 µM, the GI50 (OVCAR-3 ovarian) was over 100 µM and the TGI (OVCAR-3 ovarian) was over 100 µM.

In the case of `COc1cc2c(cc1OC)-c1c(c3ccc([N+](=O)[O-])cc3c(=O)n1CCCN=[N+]=[N-])C2=O`, the GI50 (786-0 renal) is reported as 50.4 µM, the TGI (786-0 renal) is reported as over 100 µM and the GI50 (DU-145 prostate) is reported as 86.1 µM. For the same compound, the TGI (DU-145 prostate) was over 100 µM, the GI50 (HCC-2998 colon) was 83.9 µM and the TGI (HCC-2998 colon) was over 100 µM. For the same compound, the GI50 (HCT-116 colon) was 31.5 µM, the TGI (HCT-116 colon) was over 100 µM and the GI50 (HOP-62 NSCLC) was 29.8 µM. It also gave a TGI (HOP-62 NSCLC) of over 100 µM, a GI50 (IGROV1 ovarian) of 7.5 µM and a TGI (IGROV1 ovarian) of over 100 µM. It also gave a GI50 (MCF7 breast) of 0.556 µM, a TGI (MCF7 breast) of over 100 µM and a GI50 (NCI-H460 lung) of 11.4 µM. It also gave a TGI (NCI-H460 lung) of over 100 µM, a GI50 (OVCAR-3 ovarian) of over 100 µM and a TGI (OVCAR-3 ovarian) of over 100 µM.

For `CC(O)(c1ccc(OCCC[N+](C)(C)C)cc1)C(C)(O)c1ccc(OCCC[N+](C)(C)C)cc1` (centres undefined), the TGI (786-0 renal) was over 100 µM, the TGI (CCRF-CEM leukemia) was over 100 µM and the TGI (HCC-2998 colon) was over 100 µM. It also gave a TGI (HCT-116 colon) of over 100 µM, a TGI (HOP-62 NSCLC) of over 100 µM and a TGI (IGROV1 ovarian) of over 100 µM. It also gave a TGI (NCI-H460 lung) of over 100 µM and a TGI (OVCAR-3 ovarian) of over 100 µM.
